# Reference: patent US20150192570A1, “METHODS FOR DETERMINING WHETHER A CYTOMEGALOVIRUS INFECTION IN A TRANSPLANTED PATIENT IS SUCEPTIBLE TO INDUCE ALLOGRAFT REJECTION” (priority 2012, published 2015)
# Experiments:
# [1] = tested on: MART.22 HLA-E-restricted CD8 T cells; test: TNF production by MART.22 T cells in response to .221 cells pulsed with synthetic peptides (intracellular TNF-α staining); format: cell-based, human; details: .221 cells loaded with synthetic peptide
# Protocol: For cytokine/perforine/granzyme intracellular staining, 1×10^5 T cells were stimulated in the presence of Brefeldin A (Sigma-Aldrich, 10 μg/ml) with 2×10^5 target cells (B-EBV cells or HAEC) for 6 h at 37° C., in the presence or not of blocking Abs. For peptide loading, target cells were incubated with peptides for 1 h at 37° C. before incubation with T cells. Cells were then fixed with 4% paraformaldehyde (Sigma-Aldrich), labeled with specific mAbs and analyzed by flow cytometry.
# [2] = tested on: MART.22 HLA-E-restricted CD8 T cells; test: Peptide/HLA-E*0101 tetramer staining of MART.22 T cells by flow cytometry; format: binding, human; details: PE-streptavidin tetramers, 1 h
# Protocol: A/ TNF production in response to stimulation with .221 cells pulsed with synthetic peptides. .221 cells were incubated for 1 h with range concentrations of the indicated peptides before addition of MART.22 T cells. After 6 h, T cells were fixed, permeabilized and stained for intracellular TNF-α. Results are expressed as percentage of TNF-producing T cells. B/ Peptide-MHC tetramer staining of HLA-E-restricted CD8 T cells. MART.22 T cells were incubated for 1 h with biotyniled HLA-E monomers refolded with the indicated peptides and tetramerized with PE-coupled streptavidin. Peptide-HLA-E tetramers staining was assessed by flow cytometry and MFI are indicated.
# Peptides VMAPRTLLL and VMAPRTLVL (HLA-A*01- and HLA-A*02-derived signal peptides respectively) with purity >85% were purchased from Eurogentec (Angers, France). HLA-E*0101/peptide monomers were generated by the recombinant protein facility of SFR26 (Nantes, France).
# For membrane staining, 2×10^5 cells were incubated at 4° C. with 10 μg/ml of Ab (specific or isotype control) or tetramers for 30 min or 1 h respectively. When non-conjugated mAb were used, a second incubation with PE-conjugated goat F(ab′)2 fragment anti-Mouse IgG (Beckman Coulters) was performed. 5×10^4 cells were acquired in the viable cells gate on a FACScalibur flow cytometer using CellQuest software (Becton Dickinson).
# [3] = target: classical HLA-I molecules on IFN-γ treated HAEC#495; test: cell-based or functional assay
# [4] = target: protective HLA-C molecules (KIR2DL2 ligands) expressed on HAEC; test: cell-based or functional assay
# [5] = tested on: MART.22 HLA-E-restricted CD8 T cells; test: TNF production by MART.22 against unrecognized endothelial culture HAEC#402 pulsed with synthetic peptides; format: cell-based, human; details: HAEC#402 loaded with 10^2 μM of peptide
# Protocol: A/ Reactivity of HLA-E-restricted T cells against unrecognized endothelial cultures pulsed with synthetic peptides. HAECs were incubated for 1 h with range concentrations of the indicated peptides before MART.22 T cells were added. After 6 h, T cells were fixed, permeabilized and stained for intracellular TNF-α. Results are expressed as percentage of TNF-producing T cells. B/ Impact of KIR2DL2-ligands expression by HAECs on HLA-E-restricted T cells alloreactivity. Percentages of TNF-producing MART.22 T cells are shown for HAECs with none, one or two protective HLA-C alleles. C/ Reactivity of HLA-E-restricted T cells against unrecognized endothelial cultures in the presence of blocking antibodies. HAECs were incubated with MART.22 T cells in the presence or not of indicated concentrations of blocking antobodies. After 6 h, T cells were fixed, permeabilized and stained for intracellular TNF-α. Results are expressed as percentage of TNF-producing T cells.
# (§1) For cytokine/perforine/granzyme intracellular staining, 1×10^5 T cells were stimulated in the presence of Brefeldin A (Sigma-Aldrich, 10 μg/ml) with 2×10^5 target cells (B-EBV cells or HAEC) for 6 h at 37° C., in the presence or not of blocking Abs. […] Cells were then fixed with 4% paraformaldehyde (Sigma-Aldrich), labeled with specific mAbs and analyzed by flow cytometry.
# HAEC [6] = test: Recognition (lysis, cytokine production) of IFN-γ treated endothelial cultures by MART.22; format: cell-based, human
# Protocol: A/ impact of IFN-γ treatment on surface expression of HLA-E (thick lines) and total HLA-I (dotted lines) molecules by endothelial cultures. MFI are indicated. B/ HLA-E-restricted CD8 T cells cytotoxicity toward endothelial cultures treated or not with IFN-γ. 103 ^51 Cr-labeled HAECs pretreated (closed circles) or not (open circle) with IFN-γ were co-cultured for 4 h with T cells at various E:T ratio. Cytotoxic activity was assessed trought measure of Chromium release in the supernatants. Percentages of specific lysis are indicated. Means and standard deviations of triplicate wells are shown for one representative experiments out of three performed. C/ HLA-E-restricted CD8 T cells cytokine production upon stimulation with endothelials cultures treated or not with IFN-γ. MART.22 T cells were fixed, permeabilized and stained for intracellular cytokines following 6 h of incubation with HAECs pretreated (black bars) or not (white bars) with INF-γ. Data are expressed as percentages of intracellular cytokine secreting T cells upon stimulation. […] Data are expressed as percentages of intracellular TNF secreting T cells upon stimulation. […]
# as §1
# Target cells were labeled with 100 μCi Na^51CrO4 (Oris Industrie, Gif-sur-Yvette, France) for 1 h at 37° C., and incubated 4 h at 37° C., with effectors T cells at various E/T ratios. […] Percentage of target cell lysis was calculated according to the following formula: [(experimental release−spontaneous release)/(maximum release−spontaneous release)]×100. Maximum and spontaneous releases were determined by, respectively, adding 0.1% Triton X-100 or medium to ^51Cr-labeled target cells in the absence of T cells.
# HAEC [7] = test: Surface expression of HLA-E and total HLA-I on endothelial cultures after IFN-γ treatment (flow cytometry); format: cell-based, human; details: IFN-γ 50 U/mL, 48 h
# Protocol: A/ impact of IFN-γ treatment on surface expression of HLA-E (thick lines) and total HLA-I (dotted lines) molecules by endothelial cultures. MFI are indicated. B/ HLA-E-restricted CD8 T cells cytotoxicity toward endothelial cultures treated or not with IFN-γ. 103 ^51 Cr-labeled HAECs pretreated (closed circles) or not (open circle) with IFN-γ were co-cultured for 4 h with T cells at various E:T ratio. Cytotoxic activity was assessed trought measure of Chromium release in the supernatants. Percentages of specific lysis are indicated. Means and standard deviations of triplicate wells are shown for one representative experiments out of three performed. C/ HLA-E-restricted CD8 T cells cytokine production upon stimulation with endothelials cultures treated or not with IFN-γ. MART.22 T cells were fixed, permeabilized and stained for intracellular cytokines following 6 h of incubation with HAECs pretreated (black bars) or not (white bars) with INF-γ. Data are expressed as percentages of intracellular cytokine secreting T cells upon stimulation. D/ HLA-E-restricted CD8 T cells cytokine production upon stimulation with endothelials cultures treated or not by IFN-γ, in the presence of blocking antibodies. […] Data are expressed as percentages of intracellular TNF secreting T cells upon stimulation. […]
compound,measurement,setting,value
"VMAPRTLVL [HLA-A*02-derived signal peptide, identical to a CMV UL40 peptide]",recognition of peptide-pulsed .221 cells by MART.22,[1],not recognized at all
same,binding of HLA-E*0101 tetramers refolded with the peptide to MART.22,[2],no significant binding
KIR2DL2 expressed by MART.22 T cells (from UniProt P43627 22-348) (receptor),TNF-α producing T cells against IFN-γ treated endothelial cells at the maximal dose of mAb against classical HLA-I molecules,[3],69%
same,"TNF producing T cells, endothelial cells with no appropriate HLA-C allele (HAEC#323)",[4],75%
same,"TNF producing T cells, endothelial cells with only one appropriate HLA-C allele (HAEC#112, #331 and #495)",[4],54%
same,"TNF producing T cells, mean value for endothelial cells with two appropriate HLA-C alleles (HAEC#116, #337 and #402)",[4],18%
same,TNF-producing T cells against HAEC#402 in the presence of anti-HLA-A/B/C Abs,[4],< 25%
CSCC[C@H](NC(=O)[C@@H](N)C(C)C)C(=O)N[C@@H](C)C(=O)N1CCC[C@H]1C(=O)N[C@@H](CCCNC(=N)N)C(=O)N[C@H](C(=O)N[C@@H](CC(C)C)C(=O)N[C@@H](CC(C)C)C(=O)N[C@@H](CC(C)C)C(=O)O)[C@@H](C)O [VMAPRTLLL],binding of HLA-E*0101 tetramers refolded with the peptide to MART.22,[2],bind
same,TNF secreting T cells,[5],40%
CSCC[C@H](NC(=O)[C@@H](N)C(C)C)C(=O)N[C@@H](C)C(=O)N1CCC[C@H]1C(=O)N[C@@H](CCCNC(=N)N)C(=O)N[C@H](C(=O)N[C@H](C(=O)N[C@@H](CC(C)C)C(=O)N[C@@H](CC(C)C)C(=O)O)C(C)C)[C@@H](C)O [VMAPRTVLL],TNF secreting T cells,[5],18%
VTAPRTVLL,recognition of peptide-pulsed .221 cells by MART.22,[1],not recognized at all
VTAPRTLLL,recognition of peptide-pulsed .221 cells by MART.22,[1],not recognized at all
ILT-2 expressed by MART.22 T cells (from UniProt Q8NHL6 24-650) (receptor),TNF-α producing T cells against IFN-γ treated endothelial cells at the maximal dose of mAb against classical HLA-I molecules,[3],69%
"IFN-γ: recombinant human IFN-γ (50 U/mL, Imukin, Boehringer Ingelheim)",MART.22 reactivity against IFN-γ treated HAEC#116,"HAEC [6]; HAEC#116, unpublished data",completely abolished
same,MART.22 mediated lysis and cytokine production,HAEC [6]; IFN-γ treated endothelial cells,decreased
same,TNF-α producing T cells upon stimulation with HAEC#495,"HAEC [6]; after IFN-γ treatment, 61% untreated",33%
same,HLA-E and total HLA-I surface expression on endothelial cells,HAEC [7],enhances
